Experimental findings from patent US20250134869A1, “Pyrrolo[2,3-d]pyrimidinyl, Pyrrolo[2,3-b]pyrazinyl and Pyrrolo[2,3-d]pyridinyl Acryla-mides” (Pfizer Inc, priority 2021, published 2025) are described below.

Each structure is given as a SMILES string. Read-outs that look alike come from different tables or passages of the source.

In this test the target is JAK3 enzyme (Homo sapiens (Human), UniProt P52333). The experiment in a line: JAK Caliper Enzyme Assay at 4 μM or 1 mM ATP. In kind it is biochemical.
[1] abbreviates: read-out: JAK3 (4 μM ATP) IC50, 4 μM ATP.
Setting [2] is: read-out: JAK3 (1 mM ATP) IC50, 1 mM ATP.

Chain of JAK3 enzyme (P52333 whole entry, species assumed): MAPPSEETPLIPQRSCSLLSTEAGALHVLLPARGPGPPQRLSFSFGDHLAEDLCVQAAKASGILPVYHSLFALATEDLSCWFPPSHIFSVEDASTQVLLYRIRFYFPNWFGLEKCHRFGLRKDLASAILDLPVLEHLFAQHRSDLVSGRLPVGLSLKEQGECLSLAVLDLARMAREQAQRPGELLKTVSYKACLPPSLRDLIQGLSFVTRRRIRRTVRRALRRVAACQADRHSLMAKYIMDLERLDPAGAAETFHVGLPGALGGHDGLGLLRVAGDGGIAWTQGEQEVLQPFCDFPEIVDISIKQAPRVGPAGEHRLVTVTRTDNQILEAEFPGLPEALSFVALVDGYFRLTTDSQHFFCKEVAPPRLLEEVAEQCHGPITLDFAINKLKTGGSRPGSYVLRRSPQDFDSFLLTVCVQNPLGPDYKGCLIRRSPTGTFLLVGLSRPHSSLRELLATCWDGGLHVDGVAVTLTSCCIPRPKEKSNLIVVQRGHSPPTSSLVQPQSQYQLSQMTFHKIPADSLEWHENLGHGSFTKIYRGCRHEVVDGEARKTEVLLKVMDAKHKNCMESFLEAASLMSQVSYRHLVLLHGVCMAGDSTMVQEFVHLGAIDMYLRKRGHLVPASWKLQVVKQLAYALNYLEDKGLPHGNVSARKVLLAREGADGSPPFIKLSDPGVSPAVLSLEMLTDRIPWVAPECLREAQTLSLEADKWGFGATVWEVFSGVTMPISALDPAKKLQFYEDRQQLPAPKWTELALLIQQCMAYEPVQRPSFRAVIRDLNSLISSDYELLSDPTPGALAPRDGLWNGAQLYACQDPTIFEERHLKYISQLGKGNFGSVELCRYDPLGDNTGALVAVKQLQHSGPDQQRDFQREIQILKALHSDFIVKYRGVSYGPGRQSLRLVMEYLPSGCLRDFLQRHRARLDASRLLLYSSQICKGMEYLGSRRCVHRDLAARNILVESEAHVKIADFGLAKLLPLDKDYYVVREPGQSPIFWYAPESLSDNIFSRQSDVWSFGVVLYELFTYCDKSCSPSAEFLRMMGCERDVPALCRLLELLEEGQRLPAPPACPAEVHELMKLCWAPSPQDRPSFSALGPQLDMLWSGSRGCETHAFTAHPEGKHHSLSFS

For orientation: IC50 means the midpoint of a concentration-inhibition curve. `CN(C)C/C=C/C(=O)N1CCC[C@@H](Nc2ncnc3[nH]cc(CCC#N)c23)C1` [Example 157, 3-[4-({(3R)-1-[(2E)-4-(Dimethylamino)but-2-enoyl]piperidin-3-yl}amino)-7H-pyrrolo[2,3-d]pyrimidin-5-yl]propanenitrile]: under setting [1], the IC50 amounted to 1470 nM.

With `C=CC(=O)N1CCC[C@@H](Nc2ncnc3[nH]cc(C(=O)N4CCCC4)c23)C1` [Example 146, 1-[(3R)-3-{[5-(pyrrolidin-1-ylcarbonyl)-7H-pyrrolo[2,3-d]pyrimidin-4-yl]amino}pipendin-1-yl]prop-2-en-1-one], under setting [1], the IC50 was found to be 957 nM.

As for `C=CC(=O)N1CCC(Nc2cnc3[nH]cc(C(=O)NCCCC(F)(F)F)c3n2)CC1` [Example 240, 2-[(1-acryloylpiperidin-4-yl)amino]-N-(4,4,4-trifluorobutyl)-5H-pyrrolo[2,3-b]pyrazine-7-carboxamide], the IC50 is, setting by setting: under setting [1], 0.1 nM; under setting [2], 9.1 nM.

Turning to `C=CC(=O)N1CCC(Nc2cnc3[nH]cc(-c4ccc(F)nc4)c3n2)CC1` [Example 207, 1-(4-{[7-(6-fluoropyridin-3-yl)-5H-pyrrolo[2,3-b]pyrazin-2-yl]amino}piperidin-1-yl)prop-2-en-1-one], the 50% inhibitory concentration (IC50) by setting is: under setting [1], 0.3 nM; under setting [2], 28.9 nM.

Take `C=CC(=O)N1CCC[C@@H](Nc2ncnc3[nH]cc(CCOC)c23)C1` [Example 46, 1-[(3R)-3-{[5-(2-methoxyethyl)-7H-pyrrolo[2,3-d]pyrimidin-4-yl]amino}piperidin-1-yl]prop-2-en-1-one]: the IC50 stood at 2.8 nM under setting [1] and 305 nM under setting [2].

For `C=CC(=O)N1CCC(Nc2cnc3[nH]cc(C(=O)NC4CCCC4)c3n2)CC1` [Example 283, 2-[(1-acryloylpiperidin-4-yl)amino]-N-cyclopentyl-5H-pyrrolo[2,3-b]pyrazine-7-carboxamide], the IC50 reads like this: under setting [1], 0.3 nM; under setting [2], 7.6 nM.

Regarding `C=CC(=O)N1CC2(C1)CN(c1cnc3[nH]ccc3n1)C2` [Example 175, 1-[6-(5H-pyrrolo[2,3-b]pyrazin-2-yl)-2,6-diazaspiro[3.3]hept-2-yl]prop-2-en-1-one], the IC50 under setting [1] stood at 1610 nM.

For the molecule `C=CC(=O)N1C[C@@H](O)C[C@@H](Nc2ncnc3[nH]ccc23)C1` [Example 17, 1-((3R,5S)-3-(7H-Pyrrolo[2,3-d]pyrimidin-4-ylamino)-5-hydroxypiperidin-1-yl)prop-2-en-1-one], the IC50 stood at 1.7 nM under setting [1] and 92.2 nM under setting [2].

Take `C/C=C/C(=O)N1CCC[C@@H](Nc2ncnc3[nH]cc(CC(C)(C)O)c23)C1` [Example 159, (2E)-1-[(3R)-3-{[5-(2-Hydroxy-2-methylpropyl)-7H-pyrrolo[2,3-d]pyrimidin-4-yl]amino}piperidin-1-yl]but-2-en-1-one]: under setting [1], the IC50 was over 10000 nM.

Take `C=CC(=O)N1C[C@H](Nc2ncnc3[nH]ccc23)C[C@H](OC)C1` [Example 19, 1-((3R,5S)-3-((7H-Pyrrolo[2,3-d]pyrimidin-4-yl)amino)-5-methoxypiperidin-1-yl)prop-2-en-1-one]: the IC50 under setting [1] stood at 0.6 nM and the IC50 under setting [2] was determined as 67.6 nM.

On to `C=CC(=O)N1C[C@H](Nc2ncnc3[nH]ccc23)CC[C@H]1CC` [Example 124, 1-[(2R,5R)-2-Ethyl-5-(7H-pyrrolo[2,3-d]pyrimidin-4-ylamino)piperidin-1-yl]prop-2-en-1-one], for which the IC50 is 265 nM under setting [1] and over 10000 nM under setting [2].

In the case of `C#CCNC(=O)c1c[nH]c2ncc(NC3CCN(C(=O)C=C)CC3)nc12` [Example 343, 2-((1-Acryloylpiperidin-4-yl)amino)-N-(prop-2-yn-1-yl)-5H-pyrrolo[2,3-b]pyrazine-7-carboxamide], the IC50 runs as follows: under setting [1], 0.1 nM; under setting [2], 3.4 nM.

As to `C=CC(=O)N[C@H]1CC[C@@H](Nc2cnc3[nH]cc(C(=O)NC(C)C)c3n2)CC1` [Example 182, 2-{[cis-4-(acryloylamino)cyclohexyl]amino}-N-(propan-2-yl)-5H-pyrrolo[2,3-b]pyrazine-7-carboxamide], the IC50 under setting [1] came to 11.4 nM and the IC50 under setting [2] is 975 nM.
